Source: the supplement of paper PMC3493320

How the values were obtained:
NCI-H295R [1] = assay: maximal response (efficacy) relative to DMSO (0%) and doxorubicin (-100%); higher = less growth inhibition; conditions: 48 h
NCI-H295R [2] = assay: IC50 (antiproliferative, ATP content); conditions: 48 h

| SMILES | IC50 (NCI-H295R [2]) [µM] | maximal response (NCI-H295R [1]) [%] |
| --- | --- | --- |
| O=C\1OC/C(=C/1)[C@H]2CC[C@@]8(O)[C@]2(C)[C@H](O)C[C@H]3[C@H]8CC[C@@H]4C[C@H](CC[C@]34C)O[C@@H]7O[C@H](C)[C@@H](O[C@H]6C[C@H](O)[C@H](O[C@H]5C[C@H](O)[C@H](O)[C@@H](C)O5)[C@@H](C)O6)[C@@H](O)C7 | 0.188 | -111 |
| CS(=O)(=O)O.Cc1ccc(NC(=O)c2ccc(CN3CCN(C)CC3)cc2)cc1Nc1nccc(-c2cccnc2)n1 | 18.8 | -61.7 |
| COC(C(=O)C(O)C(C)O)C1Cc2cc3cc(OC4CC(OC5CC(O)C(O)C(C)O5)C(O)C(C)O4)c(C)c(O)c3c(O)c2C(=O)C1OC1CC(OC2CC(OC3CC(C)(O)C(O)C(C)O3)C(O)C(C)O2)C(O)C(C)O1 (centres undefined) | 1.19 | -125 |
| CC[P](CC)(CC)=[Au][S][C@H]1O[C@@H](COC(C)=O)[C@H](OC(C)=O)[C@@H](OC(C)=O)[C@@H]1OC(C)=O | 1.88 | -128 |
| CC[C@]2(O)CC[C@H]3[C@@H]4CC\C1=C\CCC[C@@H]1[C@H]4CC[C@]23C | 16.8 | -60.8 |
| O=C(N[C@H](C(N[C@H](C(N[C@@H](C(N[C@H](C(N[C@@H](CCCNC(N)=N)C(N6CCC[C@H]6[C@](NCC)=O)=O)=O)CC(C)C)=O)CC4=CNC5=C4C=CC=C5)=O)CC3=CC=C(O)C=C3)=O)CO)[C@@H](NC([C@@H](N[C@]([C@@H](N8)CCC8=O)=O)CC7=CNC=N7)=O)CC1=CNC2=C1C=CC=C2.O=C(C)O | 5.31 | -124 |
| O=C3O[C@@H]2[C@@H]1O[C@@](C)1CC/C=C(C)/CC[C@H]2[C@@]3=C | 18.8 | -138 |
| O=C1C2CC=CCC2C(=O)N1SC(Cl)(Cl)Cl (centres undefined) | 16.8 | -105 |
| CC[C@H]1CN2CCc3cc(OC)c(OC)cc3[C@@H]2C[C@@H]1C[C@H]1NCCc2cc(OC)c(OC)cc21 | 2.11 | -130 |
| CO[C@H](C(=O)[C@@H](O)[C@@H](C)O)[C@@H]1Cc2cc3cc(O[C@H]4C[C@@H](O[C@H]5C[C@@H](O)[C@H](O)[C@@H](C)O5)[C@@H](O)[C@@H](C)O4)c(C)c(O)c3c(O)c2C(=O)[C@H]1O[C@H]1C[C@@H](O[C@H]2C[C@@H](O[C@H]3C[C@](C)(O)[C@H](O)[C@@H](C)O3)[C@H](O)[C@@H](C)O2)[C@H](O)[C@@H](C)O1 | 0.944 | -118 |
| O.O.[Na+].[Na+].[O]=[Cr](=[O])([O-])[O][Cr](=[O])(=[O])[O-] | 11.9 | -147 |
| Cl.Cl.Fc1ccc(C(OCCN2CCN(CCCc3ccccc3)CC2)c2ccc(F)cc2)cc1 | 23.7 | -154 |
| O=C\1OC/C(=C/1)[C@H]8CC[C@@]7(O)[C@]8(C)CC[C@H]2[C@H]7CC[C@@H]3C[C@H](CC[C@]23C)O[C@@H]6O[C@H](C)[C@@H](O[C@H]5C[C@H](O)[C@H](O[C@H]4C[C@H](O)[C@H](O)[C@@H](C)O4)[C@@H](C)O5)[C@@H](O)C6 | 0.0841 | -109 |
| COP(=S)(OC)Oc1ccc(Sc2ccc(OP(=S)(OC)OC)cc2)cc1 | 21.1 | -96.4 |
| Cc1cc2c(C(C)C)c(O)c(O)c(C=O)c2c(O)c1-c1c(C)cc2c(C(C)C)c(O)c(O)c(C=O)c2c1O | 10.6 | -127 |
| Oc1cccc[c]1[Hg][Cl] | 2.66 | -130 |
| [C@@]42([C@@]([C@@H](/C/1=C/OC(\C=C\1)=O)CC2)(CC[C@@H]5[C@]\3(CC[C@@H](/C=C/3CC[C@@H]45)O[C@H]6[C@@H]([C@@H]([C@H]([C@@H](O6)C)O)O)O)C)C)O | 0.0128 | -111 |
| [H][C@]1(CC3)[C@]([C@H]5C[C@@H]4[C@@](C=C6)=COC6=O)(O5)[C@]4(C)CC[C@]([C@]2(C)[C@@]3([H])C[C@@H](O)CC2)1[H] | 6.68 | -105 |
| C[C@]12O[C@H](C[C@]1(O)CO)n1c3ccccc3c3c4c(c5c6ccccc6n2c5c31)CNC4=O | 18.8 | -150 |
| [C@@]82([C@@]([C@@H](/C1=C/C(=O)OC1)CC2)(CC[C@@H]9[C@]7(CCC(O[C@@H]3O[C@@H]([C@H]([C@H](C3)O)O[C@@H]6O[C@@H]([C@@H](O[C@@H]5O[C@@H]([C@@H](O[C@H]4[C@@H]([C@@H](O)[C@@H]([C@H](O4)CO)O)O)[C@H](C5)OC(=O)C)C)[C@H](C6)O)C)C)C[C@H]7CC[C@@H]89)C)C)O (some centres undefined) | 0.188 | -114 |
| Oc1cc[c]([Hg][Cl])cc1 | 2.66 | -130 |

Now from value to compound, other results behind:

| IC50 (NCI-H295R [2]) [µM] | SMILES | maximal response (NCI-H295R [1]) [%] |
| --- | --- | --- |
| 15 | CC(=O)Oc1ccccc1C(=O)Nc1ncc([N+](=O)[O-])s1 | -70.8 |
| 10.6 | C[C@@H](C)[C@H]1C3=C(C=C(F)C=C3)CC[C@@](OC(COC)=O)1CCN(C)CCCC4=NC2=C(N4)C=CC=C2.Cl.Cl | -126 |
| 2.37 | S=c1[nH]cnc2[nH]cnc12 | -71.8 |
| 8.41 | Nc1nc(N)c2nc(CNc3ccc(C(=O)N[C@@H](CCC(=O)O)C(=O)O)cc3)cnc2n1 | -79.1 |
| 7.18 | Cc1cc(/C=C/c2ccc3cc(N(C)C)ccc3[n+]2C)c(C)n1-c1ccccc1.Cc1cc(/C=C/c2ccc3cc(N(C)C)ccc3[n+]2C)c(C)n1-c1ccccc1.O=C([O-])c1cc2ccccc2c(Cc2c(O)c(C(=O)[O-])cc3ccccc23)c1O | -69.7 |
| 4.73 | O=C(Nc1ccc(Oc2ccc(Cl)cc2)c(Cl)c1)c1cc(I)cc(I)c1O | -137 |
| 0.0094 | COc1cc2c(cc1O)CCN[C@]21CS[C@@H]2c3c(OC(C)=O)c(C)c4c(c3[C@H](COC1=O)N1[C@@H]2[C@H]2c3c(cc(C)c(OC)c3O)C[C@@H]([C@@H]1O)N2C)OCO4 | -117 |
| 6.68 | COc1ccc(-c2ccc3cc(C(=O)O)ccc3c2)cc1C12CC3CC(CC(C3)C1)C2 | -122 |
| 18.8 | Cl.Nc1c2ccccc2nc2ccccc12.O | -131 |
| 26.6 | CO[C@@]12[C@H](COC(N)=O)C3=C(C(=O)C(C)=C(N)C3=O)N1C[C@@H]1N[C@@H]12 | -132 |
| 10.6 | COc1cc(-c2ccc(-[n+]3nc(-c4ccccc4)nn3-c3ccc([N+](=O)[O-])cc3)c(OC)c2)ccc1-[n+]1nc(-c2ccccc2)nn1-c1ccc([N+](=O)[O-])cc1.[Cl-].[Cl-] | -132 |
| 11.9 | O=C1NCN(c2ccccc2)C12CCN(CCCC(c1ccc(F)cc1)c1ccc(F)cc1)CC2 | -137 |
| 16.8 | CC(C)(C)c1cc(O)ccc1O | -139 |
| 4.53 | C/C=C(/C(=C/C)c1ccc(O)cc1)c1ccc(O)cc1 | -68.5 |
| 21.1 | Cl.O=C1CSC2(CCN(CCCN3c4ccccc4Sc4ccc(Cl)cc43)CC2)N1 | -136 |
| 3.76 | COc1cc(N[S+](C)(=O)[O-])ccc1Nc1c2ccccc2nc2ccccc12 | -65.5 |

| IC50 (NCI-H295R [2]) [µM] | SMILES | maximal response (NCI-H295R [1]) [%] |
| --- | --- | --- |
| 29.9 | CCOC(=O)N1CCC(=C2c3ccc(Cl)cc3CCc3cccnc32)CC1 | -151 |
| 11.9 | Cc1cc(-c2ccc(N=Nc3c(S(=O)(=O)[O-])cc4cc(S(=O)(=O)[O-])cc(N)c4c3O)c(C)c2)ccc1N=Nc1c(S(=O)(=O)[O-])cc2cc(S(=O)(=O)[O-])cc(N)c2c1O.[Na+].[Na+].[Na+].[Na+] | -131 |
| 15 | CCOc1nc2cccc(C(=O)O)c2n1Cc1ccc(-c2ccccc2-c2nnn[nH]2)cc1 | -145 |
| 2.66 | Nc1nc(N)c2nc(-c3ccccc3)c(N)nc2n1 | -89.3 |
| 21.1 | Cc1cc(O)c2ccccc2c1O | -137 |
| 1.68 | CC(=O)[C@]1(O)Cc2c(O)c3c(c(O)c2[C@@H](O[C@H]2C[C@H](N)[C@H](O)[C@H](C)O2)C1)C(=O)c1ccccc1C3=O.Cl | -121 |
| 10.6 | COc1cccc2c1C(=O)c1c(O)c3c(c(O)c1C2=O)C[C@@](O)(C(C)=O)C[C@@H]3O[C@H]1C[C@H](N)[C@H](O)[C@H](C)O1 | -126 |
| 4.73 | C[n+]1cc2c3c(ccc2c2ccc4cc5c(cc4c21)OCO5)OCO3 | -119 |
| 0.211 | COC(=O)C[C@](O)(CCCC(C)(C)O)C(=O)O[C@@H]1C(OC)=C[C@]23CCCN2CCc2cc4c(cc2[C@H]13)OCO4 | -125 |
| 5.31 | Oc1c(I)cc(I)c2cccnc12 | -82.7 |
| 16.8 | CC(C)(C)c1ccc(C(=O)CCCN2CCC(OC(c3ccccc3)c3ccccc3)CC2)cc1 | -139 |
| 3.35 | Cc1cc(O)c2c3c4c(cc(O)c13)C(C)(C)C(=O)c1c(O)cc(O)c(c1-4)C2=O | -103 |
| 11.9 | OC[C@@]([C@@](C[C@@H](C4=C(C(C(C2=C(C=CC=C23)OC)=O)=C(C(O)=C4C5)C3=O)O)O[C@H](O1)C[C@@H]([C@@H]([C@@H]1C)O)N)5O)=O.Cl | -102 |
| 16.8 | CC[C@@]1(O)C(=O)OCc2c1cc1n(c2=O)Cc2cc3c([N+](=O)[O-])cccc3nc2-1 | -91.1 |
| 26.6 | CN(C)C(=O)CCSC(SCCC(=O)[O-])c1cccc(/C=C/c2ccc3ccc(Cl)cc3n2)c1.[Na+] (centres undefined) | -77.8 |
